Here are results for one compound from patent US7678390B2, “Carbon monoxide as a biomarker and therapeutic agent” (priority 1999, dated 2010).

This experiment deals with MKK3/MKK6. The experiment is described as follows: LPS-induced activation of MKK3/MKK6 in RAW 264.7 cells. The experiment is classed as cell-based, mouse. The following applies: LPS in the presence of CO (data not shown). The text has this:
Animals. Male C57BL/6 and IL-10 (−/−) mice were purchased from Jackson Laboratory (Bar Harbor, Me.), and allowed to acclimate for one week with rodent chow and water ad libitum. The MKK (−/−) mice were generated as previously described [Lu, et al., EMBO J. 18:1845-1857 (1999)]. Wild type littermates were used as controls. All animals were housed in accordance with guidelines from the American Association for Laboratory Animal Care and Research Protocols and were approved by the Animal Care and Use Committee of Yale University School of Medicine. Reagents. All reagents were purchased from Sigma Chemical Co. (St Louis, Mo.) unless specified otherwise. Plasmid Construct. Plasmid pSFFV/HO-1 was constructed by insertion of the rat HO-1 cDNA [Shibahara, et al., Proc. Natl. Acad. Sci. USA. 82: 7865-7869 (1985)] downstream of the Friend spleen focus-forming virus 5′ long-terminal repeat in the mammalian expression vector pSFFV/neo [Fuhlbrigge, et al, Proc. Natl. Acad. Sci. USA. 85: 5649-5653 (1988)] (kindly provided by Stanley Korsmeyer). Transfection. […] Gas samples were taken by the analyzer through a port in the top of the chambers at a rate of 1 L/min and analyzed by electrochemical detection, with a sensitivity of 10-600 ppm. Concentration levels were measured hourly and there were no fluctuations in the CO concentrations once the chamber had equilibrated (approximately 5 min). […]

Consider `[C-]#[O+]` [CO, carbon monoxide], for which the “MKK3/MKK6 activation by LPS” value was “augmentation”.
